Assay results reported in ChEMBL document CHEMBL1136685, “Structure-activity relationship of cyclic peptide penta-c[Asp-His(6)-DPhe(7)-Arg(8)-Trp(9)-Lys]-NH(2) at the human melanocortin-1 and -4 receptors: His(6) substitution” (Bioorg Med Chem Lett, 2003).

How the values were obtained:
[1] = target: T1, Melanocyte-stimulating hormone receptor (Homo sapiens, UniProt Q01726); experiment: Agonist activity at human melanocortin receptor (hMC1R).; type: functional
Target sequence in this assay (Q01726 whole entry): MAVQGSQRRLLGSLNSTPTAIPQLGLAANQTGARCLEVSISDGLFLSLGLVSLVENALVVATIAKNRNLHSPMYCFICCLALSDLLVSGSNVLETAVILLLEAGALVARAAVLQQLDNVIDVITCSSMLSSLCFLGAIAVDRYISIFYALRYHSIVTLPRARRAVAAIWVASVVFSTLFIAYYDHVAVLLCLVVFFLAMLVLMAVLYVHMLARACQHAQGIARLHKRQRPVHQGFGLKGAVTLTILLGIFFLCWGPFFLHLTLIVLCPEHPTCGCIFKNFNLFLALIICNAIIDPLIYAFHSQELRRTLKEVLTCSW

Melanocortin receptor 4 [2] = target: T2, Melanocortin receptor 4 (Homo sapiens, UniProt P32245); experiment: Agonist activity at human melanocortin receptor (hMC4R).; type: functional
[3] = target: T1, Melanocyte-stimulating hormone receptor; experiment: Agonistic activity against human melanocortin receptor (hMC1R) for cAMP accumulation at a concentration of 50 uM; type: functional
Target sequence in this assay (Q01726 whole entry, looked up): as the sequence (Q01726 whole entry) above

Melanocortin receptor 4 [4] = target: T2, Melanocortin receptor 4; experiment: Agonistic activity against human melanocortin receptor (hMC4R) for cAMP accumulation; type: functional
[5] = target: T1, Melanocyte-stimulating hormone receptor; experiment: Binding affinity towards human melanocortin receptor (hMC1R) using NDP-MSH as radioligand
Target sequence in this assay (Q01726 whole entry): as above

Melanocortin receptor 4 [6] = target: T2, Melanocortin receptor 4; experiment: Binding affinity towards human melanocortin receptor (hMC4R) using NDP-MSH as radioligand
Melanocortin receptor 3 = Melanocortin receptor 3 (Homo sapiens, UniProt P41968); experiment: Agonistic activity against human melanocortin receptor (hMC3R) for cAMP accumulation at a concentration of 50 uM; type: functional
Melanocortin receptor 5 = Melanocortin receptor 5 (Homo sapiens, UniProt P33032); experiment: Agonistic activity against human melanocortin receptor (hMC5R) for cAMP accumulation at a concentration of 50 uM; type: functional
Melanocortin receptor 5, sequence (P33032 whole entry): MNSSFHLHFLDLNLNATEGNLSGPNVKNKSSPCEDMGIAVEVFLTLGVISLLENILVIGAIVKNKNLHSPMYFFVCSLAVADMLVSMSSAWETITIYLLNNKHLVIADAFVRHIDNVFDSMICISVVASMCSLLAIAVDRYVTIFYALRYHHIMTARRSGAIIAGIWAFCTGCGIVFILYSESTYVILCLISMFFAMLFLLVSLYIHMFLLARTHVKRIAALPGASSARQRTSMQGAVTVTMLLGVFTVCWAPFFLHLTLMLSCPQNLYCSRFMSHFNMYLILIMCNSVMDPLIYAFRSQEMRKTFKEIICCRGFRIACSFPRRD

Melanocortin receptor 3, sequence (P41968 whole entry): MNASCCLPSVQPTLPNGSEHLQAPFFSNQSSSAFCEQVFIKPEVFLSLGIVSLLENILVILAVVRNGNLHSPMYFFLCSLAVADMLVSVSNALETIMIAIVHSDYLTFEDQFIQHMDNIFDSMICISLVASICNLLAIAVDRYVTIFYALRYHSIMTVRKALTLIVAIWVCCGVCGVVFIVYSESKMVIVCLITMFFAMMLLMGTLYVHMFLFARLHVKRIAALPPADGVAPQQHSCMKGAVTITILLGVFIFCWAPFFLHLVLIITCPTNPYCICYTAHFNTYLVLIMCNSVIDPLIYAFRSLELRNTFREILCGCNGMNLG
T2 sequence (P32245 whole entry): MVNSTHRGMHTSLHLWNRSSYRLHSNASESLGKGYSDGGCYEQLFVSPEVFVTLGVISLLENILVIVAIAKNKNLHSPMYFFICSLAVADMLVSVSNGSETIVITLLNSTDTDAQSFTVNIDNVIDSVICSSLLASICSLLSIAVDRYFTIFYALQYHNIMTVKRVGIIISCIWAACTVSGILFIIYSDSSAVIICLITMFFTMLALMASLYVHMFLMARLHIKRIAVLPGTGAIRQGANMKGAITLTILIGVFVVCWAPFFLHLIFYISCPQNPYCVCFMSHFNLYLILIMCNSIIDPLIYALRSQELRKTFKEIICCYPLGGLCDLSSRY

| Compound | EC50 [1] | EC50 (Melanocortin receptor 4 [2]) | cAMP accumulation [3] | other results |
| --- | --- | --- | --- | --- |
| CCCCC(=O)N[C@H]1CC(=O)NCCCC[C@@H](C(N)=O)NC(=O)[C@H](Cc2c[nH]c3ccccc23)NC(=O)[C@H](CCCN=C(N)N)NC(=O)[C@@H](Cc2ccccc2)NC(=O)[C@@]2(CCc3c(CC)cccc3C2)NC1=O | 420 nM | 8 nM |  |  |
| CCCCC(=O)N[C@H]1CC(=O)NCCCC[C@@H](C(N)=O)NC(=O)[C@H](Cc2c[nH]c3ccccc23)NC(=O)[C@H](CCCN=C(N)N)NC(=O)[C@@H](Cc2ccccc2)NC(=O)[C@@H]2Cc3ccccc3CN2C1=O | 5 nM | 3 nM |  |  |
| CCCC[C@H](NC(C)=O)C(=O)N[C@H]1CC(=O)NCCCC[C@@H](C(N)=O)NC(=O)[C@H](Cc2c[nH]c3ccccc23)NC(=O)[C@H](CCCN=C(N)N)NC(=O)[C@@H](Cc2ccccc2)NC(=O)[C@H](CCC(N)=O)NC1=O | 0.3 nM | 0.3 nM |  |  |
| CCCCC(=O)N[C@H]1CC(=O)NCCCC[C@@H](C(N)=O)NC(=O)[C@H](Cc2c[nH]c3ccccc23)NC(=O)[C@H](CCCNC(=N)N)NC(=O)[C@@H](Cc2ccccc2)NC(=O)C2(Cc3ccccc3C2)NC1=O | 370 nM | 65 nM |  |  |
| CCCCC(=O)N[C@H]1CC(=O)NCCCC[C@@H](C(N)=O)NC(=O)[C@H](Cc2c[nH]c3ccccc23)NC(=O)[C@H](CCCN=C(N)N)NC(=O)[C@@H](Cc2ccccc2)NC(=O)[C@H](Cc2ccc(C(F)(F)F)cc2)NC1=O | 12 nM | 2 nM |  |  |
| CCCCC(=O)N[C@H]1CC(=O)NCCCC[C@@H](C(N)=O)NC(=O)[C@H](Cc2c[nH]c3ccccc23)NC(=O)[C@H](CCCN=C(N)N)NC(=O)[C@@H](Cc2ccccc2)NC(=O)C2(CCc3cc(Br)ccc3C2)NC1=O (mixture of isomers) |  | 37 nM |  |  |
| CCCCC(=O)N[C@H]1CC(=O)NCCCC[C@@H](C(N)=O)NC(=O)[C@H](Cc2c[nH]c3ccccc23)NC(=O)[C@H](CCCN=C(N)N)NC(=O)[C@@H](Cc2ccccc2)NC(=O)[C@@]2(CCc3c(cccc3OC)C2)NC1=O (mixture of isomers) | 735 nM | 5 nM |  |  |
| CCCCC(=O)N[C@H]1CC(=O)NCCCC[C@@H](C(N)=O)NC(=O)[C@H](Cc2c[nH]c3ccccc23)NC(=O)[C@H](CCCN=C(N)N)NC(=O)[C@@H](Cc2ccccc2)NC(=O)[C@@]2(CCc3c(C)cccc3C2)NC1=O (mixture of isomers) |  | 25 nM | 80% |  |
| CCCCC(=O)N[C@H]1CC(=O)NCCCC[C@@H](C(N)=O)NC(=O)[C@H](Cc2c[nH]c3ccccc23)NC(=O)[C@H](CCCN=C(N)N)NC(=O)[C@@H](Cc2ccccc2)NC(=O)[C@@]2(CCc3ccccc3C2)NC1=O (mixture of isomers) | 900 nM | 65 nM |  |  |
| CCCCC(=O)N[C@H]1CC(=O)NCCCC[C@@H](C(N)=O)NC(=O)[C@H](Cc2c[nH]c3ccccc23)NC(=O)[C@H](CCCN=C(N)N)NC(=O)[C@@H](Cc2ccccc2)NC(=O)C2(CCc3cc(Cl)ccc3C2)NC1=O (mixture of isomers) |  | 33 nM |  |  |
| CCCCC(=O)N[C@H]1CC(=O)NCCCC[C@@H](C(N)=O)NC(=O)[C@H](Cc2c[nH]c3ccccc23)NC(=O)[C@H](CCCNC(=N)N)NC(=O)[C@@H](Cc2ccccc2)NC(=O)C2(CCc3c(cccc3C(C)C)C2)NC1=O (mixture of isomers) | 480 nM | 7 nM |  |  |
| CCCCC(=O)N[C@H]1CC(=O)NCCCC[C@@H](C(N)=O)NC(=O)[C@H](Cc2c[nH]c3ccccc23)NC(=O)[C@H](CCCN=C(N)N)NC(=O)[C@@H](Cc2ccccc2)NC(=O)C2(CCc3c(cccc3N(C)C)C2)NC1=O (mixture of isomers) | 480 nM | 45 nM |  |  |
| CCCCC(=O)N[C@H]1CC(=O)NCCCC[C@@H](C(N)=O)NC(=O)[C@H](Cc2c[nH]c3ccccc23)NC(=O)[C@H](CCCN=C(N)N)NC(=O)[C@@H](Cc2ccccc2)NC(=O)C2(CCc3cccc(Br)c3C2)NC1=O (mixture of isomers) |  | 176 nM |  |  |
| CCCCC(=O)N[C@H]1CC(=O)NCCCC[C@@H](C(N)=O)NC(=O)[C@H](Cc2c[nH]c3ccccc23)NC(=O)[C@H](CCCNC(=N)N)NC(=O)[C@@H](Cc2ccccc2)NC(=O)C2(CCc3ccc(Br)cc3C2)NC1=O (mixture of isomers) | 140 nM | 10 nM |  |  |
| CCCCC(=O)N[C@H]1CC(=O)NCCCC[C@@H](C(N)=O)NC(=O)[C@H](Cc2c[nH]c3ccccc23)NC(=O)[C@H](CCCN=C(N)N)NC(=O)[C@@H](Cc2ccccc2)NC(=O)C2(CCc3c(Cl)cccc3C2)NC1=O (mixture of isomers) |  | 9 nM |  |  |
| CCCCC(=O)N[C@H]1CC(=O)NCCCC[C@@H](C(N)=O)NC(=O)[C@H](Cc2c[nH]c3ccccc23)NC(=O)[C@H](CCCN=C(N)N)NC(=O)[C@@H](Cc2ccccc2)NC(=O)C2(CCc3c(cccc3OC(C)C)C2)NC1=O (mixture of isomers) | 1330 nM | 7 nM |  |  |

| Compound | EC50 [1] | EC50 (Melanocortin receptor 4 [2]) | cAMP accumulation [3] | other results |
| --- | --- | --- | --- | --- |
| CCCCC(=O)N[C@H]1CC(=O)NCCCC[C@@H](C(N)=O)NC(=O)[C@H](Cc2c[nH]c3ccccc23)NC(=O)[C@H](CCCNC(=N)N)NC(=O)[C@@H](Cc2ccccc2)NC(=O)C2(CCc3c(cccc3OCC)C2)NC1=O (mixture of isomers) | 1270 nM | 35 nM |  |  |
| CCCCC(=O)N[C@@H]1CC(=O)NCCCC[C@@H](C(N)=O)NC(=O)[C@H](Cc2c[nH]c3ccccc23)NC(=O)[C@@H](CCCN=C(N)N)NC(=O)[C@H](Cc2ccccc2)NC(=O)C2(CCc3c(Cl)cccc3C2)NC1=O (mixture of isomers) |  |  | 30% |  |
| CCCCC(=O)N[C@@H]1CC(=O)NCCCC[C@@H](C(N)=O)NC(=O)[C@H](Cc2c[nH]c3ccccc23)NC(=O)[C@@H](CCCN=C(N)N)NC(=O)[C@H](Cc2ccccc2)NC(=O)C2(CCc3cc(Br)ccc3C2)NC1=O (mixture of isomers) |  |  | 60% |  |
| CCCCC(=O)N[C@@H]1CC(=O)NCCCC[C@@H](C(N)=O)NC(=O)[C@H](Cc2c[nH]c3ccccc23)NC(=O)[C@@H](CCCN=C(N)N)NC(=O)[C@H](Cc2ccccc2)NC(=O)C2(CCc3cc(Cl)ccc3C2)NC1=O (mixture of isomers) |  |  | 50% |  |
| CCCCC(=O)N[C@@H]1CC(=O)NCCCC[C@@H](C(N)=O)NC(=O)[C@H](Cc2c[nH]c3ccccc23)NC(=O)[C@@H](CCCN=C(N)N)NC(=O)[C@H](Cc2ccccc2)NC(=O)C2(CCc3cccc(Br)c3C2)NC1=O (mixture of isomers) |  |  | 60% |  |
| CCCCC(=O)N[C@H]1CC(=O)NCCCC[C@@H](C(N)=O)NC(=O)[C@H](Cc2c[nH]c3ccccc23)NC(=O)[C@H](CCCN=C(N)N)NC(=O)[C@@H](Cc2ccccc2)NC(=O)C2(CCc3c(Cl)cccc3C2)NC1=O (single isomer, unassigned; form 1) |  |  |  | EC50 (Melanocortin receptor 4 [4]): 4 nM; IC50 [5]: 5820 nM; IC50 (Melanocortin receptor 4 [6]): 15 nM |
| CCCCC(=O)N[C@H]1CC(=O)NCCCC[C@@H](C(N)=O)NC(=O)[C@H](Cc2c[nH]c3ccccc23)NC(=O)[C@H](CCCN=C(N)N)NC(=O)[C@@H](Cc2ccccc2)NC(=O)C2(CCc3c(Br)cccc3C2)NC1=O (single isomer, unassigned; form 1) |  | 15 nM |  |  |
| CCCCC(=O)N[C@@H]1CC(=O)NCCCC[C@@H](C(N)=O)NC(=O)[C@H](Cc2c[nH]c3ccccc23)NC(=O)[C@@H](CCCN=C(N)N)NC(=O)[C@H](Cc2ccccc2)NC(=O)C2(CCc3c(Br)cccc3C2)NC1=O (single isomer, unassigned; form 1) |  |  | 80% |  |
| CCCCC(=O)N[C@@H]1CC(=O)NCCCC[C@@H](C(N)=O)NC(=O)[C@H](Cc2c[nH]c3ccccc23)NC(=O)[C@@H](CCCN=C(N)N)NC(=O)[C@H](Cc2ccccc2)NC(=O)C2(CCc3c(Cl)cccc3C2)NC1=O (single isomer, unassigned; form 1) |  |  | 20% | cAMP accumulation (Melanocortin receptor 3): 25%; cAMP accumulation (Melanocortin receptor 5): 75% |
| CCCCC(=O)N[C@@H]1CC(=O)NCCCC[C@@H](C(N)=O)NC(=O)[C@H](Cc2c[nH]c3ccccc23)NC(=O)[C@@H](CCCNC(N)=O)NC(=O)[C@H](Cc2ccccc2)NC(=O)C2(CCc3c(Cl)cccc3C2)NC1=O (single isomer, unassigned; form 1) |  |  | 0% | cAMP accumulation (Melanocortin receptor 3): 0%; cAMP accumulation (Melanocortin receptor 5): 0% |
| CCCCC(=O)N[C@H]1CC(=O)NCCCC[C@@H](C(N)=O)NC(=O)[C@H](Cc2c[nH]c3ccccc23)NC(=O)[C@H](CCCN=C(N)N)NC(=O)[C@@H](Cc2ccccc2)NC(=O)[C@@H]2c3ccccc3CN2C1=O (single isomer, unassigned; form 2) | 3 nM | 2 nM |  |  |
| CCCCC(=O)N[C@H]1CC(=O)NCCCC[C@@H](C(N)=O)NC(=O)[C@H](Cc2c[nH]c3ccccc23)NC(=O)[C@H](CCCN=C(N)N)NC(=O)[C@@H](Cc2ccccc2)NC(=O)C2(CCc3c(Cl)cccc3C2)NC1=O (single isomer, unassigned; form 2) |  |  |  | EC50 (Melanocortin receptor 4 [4]): 40 nM |
| CCCCC(=O)N[C@H]1CC(=O)NCCCC[C@@H](C(N)=O)NC(=O)[C@H](Cc2c[nH]c3ccccc23)NC(=O)[C@H](CCCN=C(N)N)NC(=O)[C@@H](Cc2ccccc2)NC(=O)C2(CCc3c(Br)cccc3C2)NC1=O (single isomer, unassigned; form 2) |  | 41 nM |  |  |
| CCCCC(=O)N[C@@H]1CC(=O)NCCCC[C@@H](C(N)=O)NC(=O)[C@H](Cc2c[nH]c3ccccc23)NC(=O)[C@@H](CCCN=C(N)N)NC(=O)[C@H](Cc2ccccc2)NC(=O)C2(CCc3c(Br)cccc3C2)NC1=O (single isomer, unassigned; form 2) |  |  | 70% |  |
| CCCCC(=O)N[C@@H]1CC(=O)NCCCC[C@@H](C(N)=O)NC(=O)[C@H](Cc2c[nH]c3ccccc23)NC(=O)[C@@H](CCCN=C(N)N)NC(=O)[C@H](Cc2ccccc2)NC(=O)C2(CCc3c(Cl)cccc3C2)NC1=O (single isomer, unassigned; form 2) |  |  | 60% | cAMP accumulation (Melanocortin receptor 3): 0%; cAMP accumulation (Melanocortin receptor 5): 38% |
| CCCCC(=O)N[C@@H]1CC(=O)NCCCC[C@@H](C(N)=O)NC(=O)[C@H](Cc2c[nH]c3ccccc23)NC(=O)[C@@H](CCCNC(N)=O)NC(=O)[C@H](Cc2ccccc2)NC(=O)C2(CCc3c(Cl)cccc3C2)NC1=O (single isomer, unassigned; form 2) |  |  | 0% | cAMP accumulation (Melanocortin receptor 3): 0%; cAMP accumulation (Melanocortin receptor 5): 0% |
